Here are results for 11 compounds from patent US10710986B2, “PD-1/PD-L1 inhibitors” (Gilead Sciences, Inc., priority 2018, dated 2020).

Where “and” joins values, the source holds several entries; their conditions need not be identical. Equal values may be shown once.

The subject of experiment [1] is HBV-specific CD8^+ T cells. Briefly: IFN-γ and granzyme B production in HBV-specific CD8+ T cells from CHB patient PBMCs (7-day expansion and recall, flow cytometry). The experiment is classed as cell-based, human. On the procedure:
PBMCs were isolated from whole blood using a standard Ficoll® Paque gradient. Briefly, 25-30 mL of blood was gently overlaid on top of 15 mL Ficoll® Paque Plus solution (GE Healthcare, Chicago, Ill.) in a 50 mL Falcon tube, and centrifuged in an Allegra X-14R (Beckman Coulter, Indianapolis, Ind.) at 520 g for 20 minutes at 25° C. […] Next, the cells were centrifuged at 520 g for 5 minutes and red blood cells (RBC) lysed for 5 minutes at room temperature using RBC Lysis Buffer (eBioscience, San Diego, Calif.). […] PBMCs were either subsequently used for the T cell expansion assay, or were cryopreserved with 10% DMSO in FBS before further use.
PBMCs were seeded at 2-4×10^5 cells/well in 96-well round bottom plates (Corning, N.Y.). […] PBMCs were incubated for 7 days at 37° C. with 5% CO2 in a humidified incubator. […] To inhibit protein transport, 1 μg/mL brefeldin. A solution (Sigma) was added to each well. After overnight incubation, cells were processed for immunostaining and flow cytometry as described herein.
Washed cells were resuspended in Live/Dead Aquamine Stain (Invitrogen) per manufacturer's instructions to determine the viability of the cells by flow cytometry. Live/Dead Aqua stained PBMCs were washed twice with FACS staining buffer (1% FBS in PBS), and then incubated with 50 μL of Fc blocking reagent (BD Biosciences, Franklin Lakes, N.J.) for 10 minutes at room temperature. A mixture of antibodies (50 μL/well) described in Table 6 were added to the blocking solution for surface staining, and PBMCs were incubated with the antibodies for 40 minutes at 4° C. […] Cells were washed twice with the permeabilization reagent included in the FoxP3 staining kit and incubated with antibodies for intracellular staining of IFN-γ and GrB (Table 6) at 1.0 μg/mL. After 1 hour incubation at 4° C., PBMCs were centrifuged and washed twice before being resuspended in FACS buffer. Stained PBMCs were analyzed by flow cytometry using a BD LSRFortessa X-20 Cell Analyzer (Becton Dickinson). BD Comp Beads (BD Biosciences) were used as compensation controls. CD8^+ and CD4^+ T cells were identified by gating on the live Aquamine ^−CD3^+CD8^+ and Aquamine-CD3+CD4^+ PBMC population respectively.
Flow cytometry data was analyzed using FlowJo Flow Cytometry Analysis Software v10 (TreeStar, Ashland, Oreg.). Data was exported and statistical analysis was performed using GraphPad Prism v6 (GraphPad Software, La Jolla, Calif.). Statistical significance relative to the DMSO control was calculated by two-tailed, paired t-test.

For a further experiment, the target named is PD-1/PD-L1 (Homo sapiens (Human), UniProt Q9NZQ7). Briefly: PD-1/PD-L1 biochemical protein-protein interaction assay (ALPHA). The conditions noted are these: 0.3 nM His tagged PD-L1, 2.5 nM biotinylated Fc-PD-1, 60 minutes at 25° C., read-out: IC50 PD-L1-PD1.
Chain of PD-1/PD-L1 (Q9NZQ7 19-238): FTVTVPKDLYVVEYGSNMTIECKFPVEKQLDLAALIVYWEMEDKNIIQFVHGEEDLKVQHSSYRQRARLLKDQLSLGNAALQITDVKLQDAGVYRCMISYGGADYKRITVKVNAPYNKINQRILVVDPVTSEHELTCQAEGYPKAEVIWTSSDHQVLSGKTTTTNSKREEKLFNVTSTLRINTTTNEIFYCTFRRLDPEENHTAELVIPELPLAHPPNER
The mark [2] stands for this setting: 650 nM, HBV core peptide-stimulated PBMCs from 14 CHB donors.
The mark [3] stands for this setting: PBMCs from 9 of the 14 CHB donors, compound 139 650 nM, durvalumab 10 μg/mL.
Setting [4] is: average over CHB donors (14 for compound 139, 9 for durvalumab).
The mark [5] stands for this setting: individual CHB donor, HBV core peptide-stimulated PBMCs, compound 139 at 650 nM.

As to `COc1nc(-c2cccc(-c3cccc(-c4cnc(CNC[C@@H]5CCC(=O)N5)c(OC)n4)c3Cl)c2Cl)cnc1CNC[C@@H]1CCC(=O)N1` [compound 139], in experiment [1] (setting [2]), the “increase of frequency of GrB^+ CD8^+ T cells compared with DMSO” value is listed as 1.2 fold and the “increase of frequency of IFN-γ^+ CD8^+ T cells compared with DMSO” value is reported as 2.5 fold. In addition, in experiment [1] (setting [3]), the “increase of GrB^+ CD8^+ T cells, comparison with durvalumab” value was determined as 1.2 fold and the “increase of IFN-γ^+ CD8^+ T cells, comparison with durvalumab” value amounted to 2.5 fold. Moreover, in experiment [1] (setting [4]), the “% GrB+ (GrB+ CD8+ T cells), Average” value is on record as 33.68% and the “% IFN-γ+ (IFN-γ+ CD8+ T cells), Average” value is reported as 3.13%. Moreover, in experiment [1] (setting [5]), the “% GrB+ (GrB+ CD8+ T cells)” value is 47.80% and 8.78% and 50.30% and 30.67% and 28.15% and 24.10% and 45.05% and 20.20% and 33.50% and 52.67% and 18.93% and 23.23% and 55.80% and 32.30%; the “% IFN-γ+ (IFN-γ+ CD8+ T cells)” value was 2.63% and 0.94% and 0.41% and 0.61% and 3.06% and 0.90% and 3.28% and 4.69% (2×) and 0.30% and 7.74% and 1.86% and 11.17% and 1.53%.
Broadly, the IC50 is the concentration that gives 50% inhibition. On to `COc1nc(-c2cccc(-c3cccc(-c4cc(C)c(CN5CC(C(=O)O)C6(CCOC6)C5)c(OC)n4)c3Cl)c2Cl)cnc1CNC[C@@H]1CCC(=O)N1` (stereo partly drawn) [compound 654], for which the IC50 at PD-1/PD-L1 stood at 0.071 nM.
Same read-out and setting: the same measure for `COc1nc(-c2cccc(-c3cccc(-c4cc(C)c(CN5C[C@@H]6CCC[C@]6(C(=O)O)C5)c(OC)n4)c3Cl)c2Cl)cnc1CNC[C@@H]1CCC(=O)N1` [compound 655]: 0.064 nM.
Regarding `COc1nc(-c2cccc(-c3cccc(-c4cnc(CNC[C@H]5C[C@H](O)C5)c(OC)n4)c3Cl)c2Cl)ccc1CNC[C@@H]1CCC(=O)N1` [compound 656], the IC50 at PD-1/PD-L1 worked out at 0.167 nM.
On the same count and under the same terms, in the case of `COc1nc(-c2cccc(-c3cccc(-c4cnc(CN5CC(OCC(N)=O)C5)c(OC)n4)c3Cl)c2Cl)cnc1CN1CC(OCC(N)=O)C1` [compound 657] it was 0.064 nM.
The same measure, in the same setting: in the case of `COc1nc(-c2cccc(-c3cccc(-c4cnc(CNC[C@@H]5CCC(=O)N5)c(OC)n4)c3Cl)c2Cl)cnc1CNCC1CCNC1=O` (stereo partly drawn) [compound 658] it was 0.196 nM.
On the same count and under the same terms, the same measure for `COc1nc(-c2cccc(-c3cccc(-c4cnc(CNC[C@@H]5CCC(=O)N5)c(OC)n4)c3Cl)c2Cl)cnc1CNCC1CCNC(=O)C1` (stereo partly drawn) [compound 659]: 0.121 nM; for `COc1nc(-c2cccc(-c3cccc(-c4cnc(CNCC5CCNC(=O)C5)c(OC)n4)c3Cl)c2Cl)cnc1CNCC1CCNC(=O)C1` (stereo not drawn) [compound 660]: 0.135 nM; for `COc1nc(-c2cccc(-c3cccc(-c4cnc(CNCC5CCNC5=O)c(OC)n4)c3Cl)c2Cl)cnc1CNCC1CCNC1=O` (stereo not drawn) [compound 661]: 0.064 nM.
Regarding `COc1nc(-c2cccc(-c3cccc(-c4cnc(CN5CC6(C5)CN(C(C)=O)C6)c(OC)n4)c3Cl)c2C)cnc1CN1CC2(C1)CN(C(C)=O)C2` [compound 662], the IC50 on PD-1/PD-L1 stood at 0.082 nM.
Same read-out and setting: in the case of `COc1nc(-c2cccc(-c3cccc(-c4cnc(CN5CC[C@@H](CNC(C)=O)C5)c(OC)n4)c3Cl)c2Cl)cnc1CN1CC[C@@H](CNC(C)=O)C1` [compound 663] it was 0.281 nM.
